From patent US6589325B1, “Phthalocyanine compounds, water-base ink compositions and colored products” (Nippon Kayaku Kabushiki Kaisha, priority 1999, dated 2003)

How the values were obtained:
[1] = water fastness of recorded image, stirred in water; format: physicochemical; conditions: for water fastness (summary in words): plain paper and special paper; for Water fastness Judgment / Water fastness (ΔE): stirred in water 2 min; for Water fastness Judgment: JIS fading gray scale; for Water fastness (ΔE): color difference before/after
Description: (§1) The solution of the composition as described below was prepared and filtered through a 0.45 μm membrane filter to prepare the water-based ink compositions for ink-jetting. Ion-exchanged water was used. The water-based ink compositions were prepared with water and ammonium hydroxide to have a pH of 8-10 and a total amount of 100 parts.
(§2) By using an ink-jet printer (Trade name: PICTY80L, made by NEC KK), ink-jet recordings were done on three kinds of recording paper: a plain paper (Printer Paper A4, TLB5A4S, made by Canon KK), a special paper A (Color BJ Paper LC101, made by Canon KK), a special paper B (Color Image Jet Coat Paper STX73A4, made by Sharp KK). The test results on hue, light fastness, water fastness and color rendering property in recorded images by the water-based ink compositions (containing the compounds of Example 1 to 2) of the present invention are shown in Table 2.
(§3) The ink compositions for two comparative examples were prepared so as to coincide in optical density with the black ink of the present invention as in the above (A), but the respective ink compositions contained C.I. Direct Black 19 (represented by following Formula), an azo colorant generally applied for an ink-jet black colorant (Comparative example 1) and the compound (represented by following Formula) described in JP Laid-Open No. 140270/1990 (Comparative example 2) respectively in place of the colorant. The test results on hue, light fastness, water fastness and color rendering property in recorded images pictured by the ink compositions for the comparative examples also are shown in Table 2. [drawing 4]
The recorded material was set in a beaker filled with water, stirred for 2 min and air-dried. The change in the recorded image was determined based on the JIS fading gray scale. Color difference (ΔE) between before and after the treatment also was determined by the above colorimetry system.

[2] = light fastness of recorded image, carbon arc fade meter; format: physicochemical; conditions: for light fastness (summary in words): depending on the kind of recording material; for Light fastness Judgment / Light fastness (ΔE): carbon arc 20 hours; for Light fastness Judgment: blue scale JIS L-0841; for Light fastness (ΔE): color difference before/after
Description: as §1, §2, §3
A carbon arc fade meter (by Suga Testing Machine KK) was used to irradiate carbon arc on the recorded image for 20 hours. Grade was determined based on blue scale grade as prescribed in JIS L-0841. Color difference (ΔE) between before and after the irradiation also was determined by the above colorimetry system.

water fastness (summary in words) [1] | Water fastness Judgment ([1]; plain paper) | Water fastness (ΔE) ([1]; plain paper) | Water fastness Judgment ([1]; special paper A) | Water fastness (ΔE) ([1]; special paper A) | Water fastness Judgment ([1]; special paper B) | Water fastness (ΔE) ([1]; special paper B) | light fastness (summary in words) [2] | Light fastness Judgment ([2]; plain paper) | Light fastness (ΔE) ([2]; plain paper) | Light fastness Judgment ([2]; special paper A) | Light fastness (ΔE) ([2]; special paper A) | Light fastness Judgment ([2]; special paper B) | Light fastness (ΔE) ([2]; special paper B) | SMILES
inferior | Grade 3 | (6.2) | Grade 5 | (1.0) | Grade 2 | (10.3) | unstable quality | Grade 4 | (1.3) | Grade 3 | (8.0) | Grade 4 | (2.8) | Nc1ccc2cc(S(=O)(=O)O)c(N=Nc3ccc(N=Nc4cc(C(=O)O)cc(C(=O)O)c4)c4ccccc34)c(O)c2c1 [Comparative Example 2]
inferior | Grade 2 | (11.5) | Grade 4 | (2.9) | Grade 4 | (2.8) | unstable quality | Grade 4 | (2.0) | Grade 3-4 | (4.1) | Grade 4 | (1.5) | Nc1ccc(N=Nc2ccc(N=Nc3c(S(=O)(=O)[O-])cc4cc(S(=O)(=O)[O-])c(N=Nc5ccc(N=Nc6ccc(N)cc6N)cc5)c(O)c4c3N)cc2)c(N)c1.[Na+].[Na+] [Comparative Example 1, C.I. Direct Black 19]
